US6624146B1, “Pharmaceutical compositions containing fibroblast growth factor-related peptides” (Agency of Industrial Science and Technology, priority 1998, dated 2003)

What was measured:
[1] = Food and water intake inhibitory effects 12 hours after injection into the cerebral ventricles; type: in vivo, Wistar rats
Experimental: In the same manner as in example 1, the peptide […]Try-Lys-Lys-Pro-Lys-Leu (SEQ ID NO:3) was synthesized. This peptide was dissolved in physiological saline to prepare a 2.6 pmol/μl peptide-containing injection solution. Five μl of the injection solution (containing 13 pmol peptide) was administered in the cerebral ventricles of 10-week old male Wistar rats, and the food and water intake level were measured 12 hours after administration to compare with those in the same period of the day prior to administration.
On the other hand, 5 μl physiological saline was administered as a control in the same manner as described above, and 2.6 pmol/μl FGF-containing injection solution was administered as a comparative example in the same manner as described above. Food and water intake levels were measured respectively 12 hours after administration, and were compared to those in the same period of the day prior to administration to calculate amounts of change in food and water intake.

[2] = Weight-reducing effect: change in body weight the day after injection into the cerebral ventricles; type: in vivo, Wistar rats
Experimental: This peptide was dissolved in physiological saline to prepare a 2.6 pmol/μl peptide-containing injection solution. Five μl of the injection solution (containing 13 pmol peptide) was administered into the cerebral ventricles of 10-week-old male Wistar rats, which were weighed on the next day to calculate amounts of change in weight prior to and subsequent to injection.
On the other hand, 5 μl physiological saline was administered to rats as a control in the same manner as described above, and 2.6 pmol/μl FGF-containing injection solution was administered to rats as a comparative example in the same manner as described above. Each rat was weighed on the next day to calculate amounts of change in weight prior to and subsequent to injection.

[3] = 13 pmol into the cerebral ventricles, 12 hours, vs saline control
[4] = 10-week-old male Wistar rats, 13 pmol/5 μl into the cerebral ventricles, 12 hours after administration vs same period of the day prior

Q: Which “Food intake level compared to physiological saline control (in words)” value [1, 3] does the source give for “Ala-Ala-Val-Ala-Leu-Leu-Pro-Ala-Val-Leu-Leu-Ala-Leu-Leu-Ala-Val-Ala-Ala-Ala-Asn-Try-Lys-Lys-Pro-Lys-Leu (AAVALLPAVLLALLAVAAANYKKPKL; Derivative of partial peptide of fibroblast growth factors)” here?
A: significantly reduced

Q: What about the “Water intake level compared to physiological saline control (in words)” value [1, 3] of the same substance?
A: significantly reduced

Q: What about the “Amount of change in food intake” value [1, 4] of the same substance?
A: -4.8 g

Q: What about the “Amount of change in water intake” value [1, 4] of the same substance?
A: -8.4 mL

Q: What about the “Weights of the rats compared to physiological saline control (in words)” value ([2]; 13 pmol into the cerebral ventricles, next day, vs saline control) of the same substance?
A: significantly reduced

Q: What about the “Amount of change in weight” value ([2]; 10-week-old male Wistar rats, 13 pmol/5 μl into the cerebral ventricles, weighed on the next day, prior vs subsequent to injection) of the same substance?
A: -5.3 g
